Key:
Apis mellifera = settings: acute; duration: 48 hours; oral; unspecified; mortality
Bibionidae = settings: chronic/long-term; duration: 26 days; other
Bird = settings: short-term; oral; feed; mortality
Colinus virginianus = settings: acute; oral; mortality
Coturnix japonica = settings: reproduction developmental; duration: 8 weeks; reproduction
Daphnia magna = settings: chronic/long-term; duration: 21 days; growth
Folsomia candida = settings: chronic/long-term; duration: 28 days
Macromiidae = settings: acute; duration: 72 hours; growth
Tagia sp. = settings: acute; duration: 14 days; mortality
Aphidius rhopalosiphi = assay: LR50; higher = less toxic; settings: not reported; mortality

SMILES: O=C(Nc1ccccc1)N(Cc1ccc(Cl)cc1)C1CCCC1 [Pencycuron]
- LD50 (Apis mellifera): > 98.5 µg/piece
- NOEC (Bibionidae): ≥ 0.3 mg/L
- LC50 (Bird): > 1750 mg/kg-day
- LD50 (Colinus virginianus): > 2000 mg/kg
- NOEL (Coturnix japonica): ≥ 122 mg/kg-day
- NOEC (Daphnia magna): 0.0496 mg/L
- NOEC (Folsomia candida): 60 mg/kg
- NOEC (Macromiidae): > 0.3 mg/L
- LC50 (Oncorhynchus mykiss; acute, duration: 96 hours, mortality): > 0.3 µg/mL
- NOEC (Oncorhynchus mykiss; chronic/long-term, duration: 94 days, growth): 0.0832 mg/L
- LD50 (Rattus norvegicus; acute, oral, mortality): > 5000 mg/kg
- NOAEL (Rattus norvegicus; chronic, duration: 2 years): 18 mg/kg-day
- NOAEL (Rattus norvegicus; reproduction developmental, body weight): 32 mg/kg-day
- LC50 (Tagia sp.): > 10000 mg/kg
- LR50 (Aphidius rhopalosiphi): 685 g/ha
